Drawing on PubChem BioAssay (NCI), this text covers TGI and GI50 for seven compounds.

Each structure is given as a SMILES string.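 Values below derive from 48-hour exposures of cells grown in 96-well plates, with endpoints linearly interpolated between the two concentrations bracketing the appropriate inhibition level. Abbreviation: GI50, concentration required for 50% inhibition of growth. TGI denotes the concentration required for complete inhibition of growth.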 Where only a bound is given, the exact number is not on record here.

Test systems include MALME-3M melanoma; OVCAR-5 ovarian; RXF-631 renal; SF-539 CNS; SW-620 colon; A498 renal; BT-549 breast; DU-145 prostate; HS 578T breast; MDA-MB-231 breast; MDA-N; PC-3 prostate; MDA-MB-435; P388 leukemia; P388/ADR leukemia; SN12K1 renal.
Holding throughout (test): NCI tumour cell line growth inhibition, 48 h

As for `CCN(CC)CCO[Si](OCCN(CC)CC)(OCCN(CC)CC)OCCN(CC)CC`, the TGI with MALME-3M melanoma, with OVCAR-5 ovarian, in the assay on RXF-631 renal, in the assay on SF-539 CNS and with SW-620 colon was over 100 µM throughout.
For `O=C(CCC1CCCCN1)Nc1ccc2c(c1)C(=O)c1ccc(NC(=O)CCN3CCCCC3)cc1C2=O` (configuration not stated), the TGI is 16.2 µM with A498 renal, 2.81 µM with MALME-3M melanoma, 11.2 µM with OVCAR-5 ovarian and 8.46 µM in the assay on SF-539 CNS.
For the compound `COC(=O)C1c2cc3c(c(O)c2C(O)CC1(C)O)C(=O)c1c(O)cc2c(c1C3=O)OC1OC2(C)C(O)C(N(C)C)C1O` (configuration not stated), the TGI in the assay with BT-549 breast worked out at 17.7 µM; in the assay with DU-145 prostate it was 3.44 µM; with HS 578T breast it was 7.21 µM; in the assay with MDA-MB-231 breast, 2.64 µM; in the assay on MDA-N, 2.91 µM; in the assay with PC-3 prostate, 2.43 µM.
Regarding `NC(=O)Oc1ccccc1`, the TGI in the assay on A498 renal, with DU-145 prostate, in the assay on HS 578T breast, in the assay with MDA-MB-231 breast, in the assay with MDA-MB-435 and in the assay on MDA-N was over 100 µM each time. The TGI with PC-3 prostate and with SW-620 colon was over 100 µM throughout.
`CC1OC(=O)C(C(C)C)NC(=O)C(C(C)C)OC(=O)C(C(C)C)NC(=O)C(C)OC(=O)C(C(C)C)NC(=O)C(C(C)C)OC(=O)C(C(C)C)NC(=O)C(C)OC(=O)C(C(C)C)NC(=O)C(C(C)C)OC(=O)C(C(C)C)NC1=O` (configuration not stated): the TGI was 0.0383 µM in the assay on A498 renal; 3.63 µM in the assay on MALME-3M melanoma; 0.25 µM with P388 leukemia; 0.0325 µM with P388/ADR leukemia; 0.328 µM in the assay on SF-539 CNS; 0.816 µM in the assay with SN12K1 renal. This compound had a TGI in the assay on SW-620 colon of 4.85 µM. Moreover, the GI50 in the assay on SF-539 CNS was 0.000484 µM; with SW-620 colon it was under 0.0001 µM.
On to `CCOC(C)OC1CC(n2cc(C)c(=O)[nH]c2=O)OC1CO` (configuration not stated), for which the TGI in the assay on A498 renal, with MALME-3M melanoma, with OVCAR-5 ovarian, with SF-539 CNS and in the assay with SW-620 colon was over 100 µM throughout.
Take `CN1CN(C(=O)N2CN(C)C(=O)N(C)C2)CN(C)C1=O`: the TGI in the assay on A498 renal, with MALME-3M melanoma, with OVCAR-5 ovarian, in the assay on SF-539 CNS and with SW-620 colon was over 100 µM each time.
